The IC50 is the point on the concentration scale where inhibition reaches its midpoint. Usually EC50 stands for the concentration at which the effect is half-maximal. Read a high EC50 as lower potency in that assay.

For assay [1], the system named is Hep-G2 cells. The assay is described as follows: cells. Type of assay: cell-based, human. The note with it: 96 h. The procedure:
(§1) Cells were seeded at 1000 cells per well in white-walled, clear bottom 96-well plates and allowed to adhere in the incubator for 24 h. […] Treatment doses were created in a 12-or 10-point, twofold serial dilution, starting at 200 μM. After 24 h of treatment, 10% FBS was spiked back into each well and the plate returned to 37 °C […]. After 96 h of drug treatment, the Promega 2D CellTiter-Glo reagent was added to each well at a 1:2 ratio of reagent to treatment media. […] This assay was performed a minimum of 3 (n = 3) times for each cell line, with each run containing a minimum of 3 technical replicates per run. IC50 curves were generated using GraphPad Prism (version 10.3.1), reporting the mean % viability relative to DMSO ± SD.

In assay [2] the test system is LX-2 cells. The assay is described as follows: cells. The note with it: 96 h. Type of assay: cell-based, human. The procedure: as §1
Assay [3] relates to NHEM cells. The assay is described as follows: cells. Type of assay: cell-based, human. The conditions noted are these: 96 h. On the procedure: as §1
In assay [4] the test system is ONDA7 cells. The assay is described as follows: cells. It counts as cell-based, human. The note with it: 96 h. The procedure:
as §1

Assay [5] deals with SK-MEL-147 cells. The assay is described as follows: cells. It counts as cell-based, human. The conditions noted are these: 96 h. On the procedure: as §1
For assay [6], the system named is WM88 cells. The assay is described as follows: cells. The conditions noted are these: 96 h. It counts as cell-based, human. On the procedure:
as §1

Assay [7] has as its system SK-MEL-147 cells. The assay is described as follows: RealTime-Glo Annexin V apoptosis assay. It counts as cell-based, human. The conditions noted are these: for induction of apoptosis, time-course: every 24 h over 96 h. On the procedure:
SK-MEL-147 cells were seeded at 1000 cells/well in 384-well white-walled, clear-bottom plates (Corning). Cells were allowed to adhere overnight. Serial twofold dilutions of drugs were prepared starting at 200 μM. Immediately after adding the drug treatments, 2X RealTime-Glo™ Annexin V Apoptosis detection reagent (Promega) was added. Replicates were also included for the following controls: “no-cell” (negative), vehicle-only controls (negative), and cisplatin (5 μM, positive). […] Dose-response curves and EC50 curves were obtained using GraphPad Prism (version 10.3.1), reporting mean luminescence relative to DMSO ± SD. A minimum of 5 independent biological runs (n = 5) were performed per treatment group. […]
manner via Annexin V apopt osi s ti me -course study. SK -MEL- 147 cells treated with ( a) 2012, (b) 2 0 20, and (c) defactinib are evaluated for apoptosis using RealTime- Glo system for Annexin V binding. EC50 curves representing data obtained every 24 hours, over the course of 96 hours total. EC50 cur ves f it us i ng GraphPad Prism reporting mean ± SD of (a) 7 biological replicates (n=7); (b) 5 biological replicates (n =5); and (c) 5 biological replicates (n =5). Source data are provided as Source Data files.

Assay [8] has as its system SK-MEL-147 cells. The assay is described as follows: Transwell invasion assay. Type of assay: cell-based, human. On the procedure:
SK-MEL-147 cells were seeded at 400,000 cells/well in six-well plates and allowed to adhere in the incubator overnight. Cells were pretreated with drugs ranging from 200–0.01 μM, and incubated for 48 h. Subsequently, 8.0 μm PET membrane cell culture inserts (Falcon) were coated with 40 μL of 0.3 mg/mL Matrigel (Corning) diluted in serum-free media and incubated at 37 °C/5% CO2 for 5 h to allow the solution to gel. Unbound Matrigel was removed from the inserts, and membranes were rehydrated with serum-containing media for an additional hour. Treated cells were then trypsinized, collected by centrifugation, washed with DPBS, and resuspended in serum-free media. About 50,000 cells per treatment group were seeded into upper chambers with additional serum-free media. 10% FBS-containing media was placed into bottom chambers as a chemoattractant. After 24 h, inserts were then stained with crystal violet (Sigma-Aldrich) and washed with DPBS. Using an ECHO Revolve microscope, bright field images of 6 fields of view for each insert were taken at 10x magnification. The number of invaded cells in each image was quantified using ImageJ (version 1.52a). Bar graphs, dose-response curves, and IC50 values were established using GraphPad Prism (version 10.3.1), reporting the mean number of invaded cells relative to DMSO ± SD.
Transwell invasion assay. Representative brightfield images of invaded SK -MEL- 147 cells on transwell inserts at 10X magnification following peptide treatment. Images show invaded cells after treatment with various concentrations of 2020 (top panel), 2012 (middle panel), and defactinib (bottom panel), in addition to DMSO vehicle-control (left, top panel) and ad- FRNK positive control (left, bottom panel). Bar graphs reveal m ean number of invaded cells ± SD and calculated IC50 values across all dos e s of 2020 (left graph, n=2), 2012 (middle graph, n=6), and defactinib (right graph, n=4 ). All values for ‘n’ represent independent biological replicates. One -way ANOVA analyses and Dunnet’s multiple comparison tests were performed

Assay [9] addresses 97 kinases (kinase named in endpoint) (Homo sapiens, UniProt O00444). The assay is described as follows: Eurofins KINOMEscan profiling, 97 kinases. The note with it: read-out: % Ctrl, PLK4.
Description: (§2) This experiment was performed by Eurofins KINOMEscan™ Profiling Service. […] The lysates were centrifuged and filtered, the remaining kinases were produced in HEK-293 cells and subsequently tagged with DNA for qPCR detection. […] The liganded beads were blocked with excess biotin and washed with blocking buffer (SeaBlock (Pierce), 1% BSA, 0.05% Tween-20, 1 mM DTT). […] Test compounds were prepared as 100x stocks in 100% DMSO and directly diluted into the assay. All reactions were performed in polypropylene 384-well plates in a final volume of 0.02 ml. […] The kinase concentration in the eluates was measured by qPCR.
(§3) (negative control signal - positive control signal)] x 100. ( b) AccompanyingSelectivity Scores or S -scores
(§4) which are quantitative measures of compound selectivity. They are calculated by dividing the number of
(§5) kinases that compounds bind to by the total number of distinct kinases tested, excluding mutant variants.
(§6) S(35)= ( num ber of non -mutant kinases with %Ctrl <35)/(number of non- mutant kinases tested)], S(10)=
(§7) non- mutant kinases with %Ctrl <1)/(number of non- mutant kinases tested)].
The target in assay [10] is 97 kinases (kinase named in endpoint) (Homo sapiens, UniProt P00519, T315I). The assay is described as follows: Eurofins KINOMEscan profiling, 97 kinases. The conditions noted are these: read-out: % Ctrl, ABL(T315I)-phosphorylated.
Description: as §2, §3, §4, §5, §6, §7
The target in assay [11] is 97 kinases (kinase named in endpoint) (Homo sapiens, UniProt P07949). The assay is described as follows: Eurofins KINOMEscan profiling, 97 kinases. The conditions noted are these: read-out: % Ctrl, RET.
Chain of 97 kinases (kinase named in endpoint) (Homo sapiens, UniProt P07949) (P07949 29-1114): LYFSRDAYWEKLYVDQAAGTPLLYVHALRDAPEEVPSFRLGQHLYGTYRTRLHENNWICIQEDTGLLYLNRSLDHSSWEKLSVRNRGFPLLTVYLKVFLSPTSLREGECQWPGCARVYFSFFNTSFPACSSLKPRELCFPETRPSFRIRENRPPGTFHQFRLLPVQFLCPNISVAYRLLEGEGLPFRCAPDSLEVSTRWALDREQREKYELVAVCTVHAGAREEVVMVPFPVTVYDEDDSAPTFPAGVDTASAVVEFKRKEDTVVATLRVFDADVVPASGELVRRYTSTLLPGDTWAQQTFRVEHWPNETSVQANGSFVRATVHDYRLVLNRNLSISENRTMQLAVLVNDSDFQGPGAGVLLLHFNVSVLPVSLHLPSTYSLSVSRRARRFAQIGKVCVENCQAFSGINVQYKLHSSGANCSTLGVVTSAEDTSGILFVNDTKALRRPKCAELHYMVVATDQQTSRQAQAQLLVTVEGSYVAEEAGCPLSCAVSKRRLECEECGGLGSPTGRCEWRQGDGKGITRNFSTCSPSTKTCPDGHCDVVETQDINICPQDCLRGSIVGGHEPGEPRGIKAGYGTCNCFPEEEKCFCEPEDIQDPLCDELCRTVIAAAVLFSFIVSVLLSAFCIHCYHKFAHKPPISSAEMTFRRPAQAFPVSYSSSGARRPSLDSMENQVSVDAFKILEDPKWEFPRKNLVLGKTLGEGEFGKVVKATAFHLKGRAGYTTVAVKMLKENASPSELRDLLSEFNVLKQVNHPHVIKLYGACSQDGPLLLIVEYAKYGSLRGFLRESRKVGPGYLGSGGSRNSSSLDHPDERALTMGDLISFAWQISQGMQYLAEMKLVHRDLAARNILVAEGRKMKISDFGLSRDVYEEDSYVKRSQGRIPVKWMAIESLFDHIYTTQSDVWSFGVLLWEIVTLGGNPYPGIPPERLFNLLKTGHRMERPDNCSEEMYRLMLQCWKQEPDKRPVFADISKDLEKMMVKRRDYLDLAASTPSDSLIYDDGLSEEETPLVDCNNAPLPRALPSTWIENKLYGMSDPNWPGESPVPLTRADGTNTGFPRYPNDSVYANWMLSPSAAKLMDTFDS
Description: as §2, §3, §4, §5, §6, §7
The target of assay [12] is 97 kinases (kinase named in endpoint) (Homo sapiens, UniProt P31749). The assay is described as follows: Eurofins KINOMEscan profiling, 97 kinases. The conditions noted are these: read-out: % Ctrl, AKT1.
Chain of 97 kinases (kinase named in endpoint) (Homo sapiens, UniProt P31749) (P31749 whole entry): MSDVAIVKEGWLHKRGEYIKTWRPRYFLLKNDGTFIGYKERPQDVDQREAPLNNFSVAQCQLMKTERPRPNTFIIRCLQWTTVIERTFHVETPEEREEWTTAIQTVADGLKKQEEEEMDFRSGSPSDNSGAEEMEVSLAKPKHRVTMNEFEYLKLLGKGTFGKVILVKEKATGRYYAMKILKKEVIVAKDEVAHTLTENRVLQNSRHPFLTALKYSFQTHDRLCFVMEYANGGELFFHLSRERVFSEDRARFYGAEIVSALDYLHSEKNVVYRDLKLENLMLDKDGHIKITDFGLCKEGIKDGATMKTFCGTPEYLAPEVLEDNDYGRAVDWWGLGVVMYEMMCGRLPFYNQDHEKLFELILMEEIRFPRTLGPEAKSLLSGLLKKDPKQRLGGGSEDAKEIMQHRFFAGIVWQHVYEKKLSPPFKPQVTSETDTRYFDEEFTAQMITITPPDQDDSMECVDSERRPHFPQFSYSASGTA
Description: as §2, §3, §4, §5, §6, §7
The target in assay [13] is 97 kinases (kinase named in endpoint) (Homo sapiens, UniProt P51812). The assay is described as follows: Eurofins KINOMEscan profiling, 97 kinases. The conditions noted are these: read-out: % Ctrl, RSK2(Kin.Dom.1-N-terminal).
Description: as §2, §3, §4, §5, §6, §7
In assay [14] the target is 97 kinases (kinase named in endpoint) (Homo sapiens, UniProt P53779). The assay is described as follows: Eurofins KINOMEscan profiling, 97 kinases. The conditions noted are these: read-out: % Ctrl, JNK3.
Chain of 97 kinases (kinase named in endpoint) (Homo sapiens, UniProt P53779) (P53779 whole entry): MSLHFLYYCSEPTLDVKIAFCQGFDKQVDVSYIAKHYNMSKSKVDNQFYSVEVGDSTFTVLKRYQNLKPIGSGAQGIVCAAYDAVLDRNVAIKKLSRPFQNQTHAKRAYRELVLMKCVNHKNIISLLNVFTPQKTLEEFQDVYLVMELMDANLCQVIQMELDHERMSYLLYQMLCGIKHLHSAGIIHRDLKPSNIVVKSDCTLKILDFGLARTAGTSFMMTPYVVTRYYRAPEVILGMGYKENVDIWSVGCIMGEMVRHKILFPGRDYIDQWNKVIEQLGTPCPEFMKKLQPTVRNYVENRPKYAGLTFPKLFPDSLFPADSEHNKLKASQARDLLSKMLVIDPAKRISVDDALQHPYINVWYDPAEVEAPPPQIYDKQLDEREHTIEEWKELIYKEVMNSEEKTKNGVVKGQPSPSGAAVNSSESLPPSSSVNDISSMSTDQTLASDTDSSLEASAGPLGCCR
Description: as §2, §3, §4, §5, §6, §7
The target of assay [15] is 97 kinases (kinase named in endpoint) (Homo sapiens, UniProt P80192). The assay is described as follows: Eurofins KINOMEscan profiling, 97 kinases. The note with it: read-out: % Ctrl, MLK1.
Chain of 97 kinases (kinase named in endpoint) (Homo sapiens, UniProt P80192) (P80192 whole entry): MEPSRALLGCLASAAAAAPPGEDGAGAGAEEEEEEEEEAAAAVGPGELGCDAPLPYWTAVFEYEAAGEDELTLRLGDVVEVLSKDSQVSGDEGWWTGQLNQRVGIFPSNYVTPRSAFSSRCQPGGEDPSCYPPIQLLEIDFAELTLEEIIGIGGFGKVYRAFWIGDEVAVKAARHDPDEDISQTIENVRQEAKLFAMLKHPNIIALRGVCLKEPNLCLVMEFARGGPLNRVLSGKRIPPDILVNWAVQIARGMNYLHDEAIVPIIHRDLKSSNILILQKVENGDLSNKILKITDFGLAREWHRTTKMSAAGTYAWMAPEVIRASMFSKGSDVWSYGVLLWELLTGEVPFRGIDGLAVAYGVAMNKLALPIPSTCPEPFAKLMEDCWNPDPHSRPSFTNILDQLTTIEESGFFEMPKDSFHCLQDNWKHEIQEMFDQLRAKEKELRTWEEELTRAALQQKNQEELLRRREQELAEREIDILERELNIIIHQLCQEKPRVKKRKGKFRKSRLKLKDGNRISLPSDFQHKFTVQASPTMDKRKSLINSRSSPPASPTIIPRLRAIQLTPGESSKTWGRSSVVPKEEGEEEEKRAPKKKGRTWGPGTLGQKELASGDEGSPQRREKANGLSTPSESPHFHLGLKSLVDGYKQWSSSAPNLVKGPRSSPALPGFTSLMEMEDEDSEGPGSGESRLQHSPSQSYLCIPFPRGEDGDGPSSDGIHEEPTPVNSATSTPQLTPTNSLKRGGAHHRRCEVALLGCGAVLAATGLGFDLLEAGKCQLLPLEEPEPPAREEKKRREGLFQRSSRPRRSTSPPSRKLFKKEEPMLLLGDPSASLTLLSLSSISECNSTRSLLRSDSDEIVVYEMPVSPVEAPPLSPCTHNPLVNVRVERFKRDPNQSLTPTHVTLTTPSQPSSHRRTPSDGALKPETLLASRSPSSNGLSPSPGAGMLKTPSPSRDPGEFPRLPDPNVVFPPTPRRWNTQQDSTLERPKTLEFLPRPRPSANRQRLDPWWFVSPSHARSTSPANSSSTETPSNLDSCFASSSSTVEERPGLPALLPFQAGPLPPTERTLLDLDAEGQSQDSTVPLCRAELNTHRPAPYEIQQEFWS
Description: as §2, §3, §4, §5, §6, §7
Assay [16] concerns the target 97 kinases (kinase named in endpoint) (Homo sapiens, UniProt Q15831). The assay is described as follows: Eurofins KINOMEscan profiling, 97 kinases. The note with it: read-out: % Ctrl, LKB1.
Description: as §2, §3, §4, §5, §6, §7
Assay [17] deals with 97 kinases (kinase named in endpoint) (Homo sapiens, UniProt Q9HBH9). The assay is described as follows: Eurofins KINOMEscan profiling, 97 kinases. The conditions noted are these: read-out: % Ctrl, MKNK2.
Chain of 97 kinases (kinase named in endpoint) (Homo sapiens, UniProt Q9HBH9) (Q9HBH9 whole entry): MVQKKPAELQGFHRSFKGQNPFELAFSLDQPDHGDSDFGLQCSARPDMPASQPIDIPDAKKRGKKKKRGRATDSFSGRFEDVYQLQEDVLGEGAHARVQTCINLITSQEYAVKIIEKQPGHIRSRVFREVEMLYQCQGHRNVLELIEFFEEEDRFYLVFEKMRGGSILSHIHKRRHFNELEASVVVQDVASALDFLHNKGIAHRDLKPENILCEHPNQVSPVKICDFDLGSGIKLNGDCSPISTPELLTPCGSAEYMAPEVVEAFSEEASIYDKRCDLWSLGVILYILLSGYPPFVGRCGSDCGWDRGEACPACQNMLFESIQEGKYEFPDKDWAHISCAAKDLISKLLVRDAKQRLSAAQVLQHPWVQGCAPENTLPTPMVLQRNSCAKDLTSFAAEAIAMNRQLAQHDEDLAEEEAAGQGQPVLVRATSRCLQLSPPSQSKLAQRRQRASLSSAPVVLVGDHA
Description: as §2, §3, §4, §5, §6, §7
Setting [18] is: Homo sapiens, average of n >= 3, read-out: cell viability IC50.

Where two headings read alike, the source gives them in different places. Bridge positions count the residues as written; N and C are the ends. Square brackets hold non-standard residues; d marks the D form. Peptide text beside a SMILES is read from it. * marks the point of attachment. Myristoyl = CCCCCCCCCCCCCC(=O)*; R8 = C=CCCCCCC[C@@](C)(N)C(=O)O; S5 = C=CCCC[C@](C)(N)C(=O)O Where only a bound is given, the exact number is not on record here.

Chain of 97 kinases (kinase named in endpoint) (Homo sapiens, UniProt Q15831) (Q15831 whole entry): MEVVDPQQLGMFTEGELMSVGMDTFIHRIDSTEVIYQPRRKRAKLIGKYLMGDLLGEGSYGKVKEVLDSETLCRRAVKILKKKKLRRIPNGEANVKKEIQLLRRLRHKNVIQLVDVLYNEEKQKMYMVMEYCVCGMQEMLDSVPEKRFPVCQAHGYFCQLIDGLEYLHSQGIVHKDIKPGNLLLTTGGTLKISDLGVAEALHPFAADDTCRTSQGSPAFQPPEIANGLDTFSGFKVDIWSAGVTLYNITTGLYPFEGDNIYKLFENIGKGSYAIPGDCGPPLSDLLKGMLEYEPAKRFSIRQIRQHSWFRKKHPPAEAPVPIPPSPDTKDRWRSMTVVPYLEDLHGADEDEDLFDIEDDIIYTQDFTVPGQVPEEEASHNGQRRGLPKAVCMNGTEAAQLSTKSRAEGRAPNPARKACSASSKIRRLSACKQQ
Chain of 97 kinases (kinase named in endpoint) (Homo sapiens, UniProt O00444) (O00444 whole entry): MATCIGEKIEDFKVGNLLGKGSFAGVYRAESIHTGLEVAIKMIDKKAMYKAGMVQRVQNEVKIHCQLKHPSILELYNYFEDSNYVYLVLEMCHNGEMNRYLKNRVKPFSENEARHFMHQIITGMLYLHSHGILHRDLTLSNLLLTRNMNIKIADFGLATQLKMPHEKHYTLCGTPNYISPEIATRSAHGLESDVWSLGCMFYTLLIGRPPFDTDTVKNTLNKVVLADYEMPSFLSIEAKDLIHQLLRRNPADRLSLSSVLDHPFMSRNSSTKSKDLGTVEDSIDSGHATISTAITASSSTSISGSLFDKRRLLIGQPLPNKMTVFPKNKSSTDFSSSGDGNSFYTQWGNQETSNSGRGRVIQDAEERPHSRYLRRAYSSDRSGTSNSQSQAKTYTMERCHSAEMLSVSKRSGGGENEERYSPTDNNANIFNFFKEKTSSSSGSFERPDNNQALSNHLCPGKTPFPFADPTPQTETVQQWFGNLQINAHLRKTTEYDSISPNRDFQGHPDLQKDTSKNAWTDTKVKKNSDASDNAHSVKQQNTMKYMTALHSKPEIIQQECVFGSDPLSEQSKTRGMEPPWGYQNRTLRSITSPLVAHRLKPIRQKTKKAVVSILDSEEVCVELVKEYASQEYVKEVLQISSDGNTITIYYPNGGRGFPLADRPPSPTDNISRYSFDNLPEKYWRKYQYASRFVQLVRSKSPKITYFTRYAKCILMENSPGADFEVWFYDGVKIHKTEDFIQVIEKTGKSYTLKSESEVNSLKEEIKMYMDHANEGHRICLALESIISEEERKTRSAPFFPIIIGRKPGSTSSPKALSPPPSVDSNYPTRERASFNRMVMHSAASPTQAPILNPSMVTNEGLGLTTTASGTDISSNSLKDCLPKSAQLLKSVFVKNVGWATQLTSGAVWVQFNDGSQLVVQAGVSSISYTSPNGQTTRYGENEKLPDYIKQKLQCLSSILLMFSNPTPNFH

On to `CCCCCCCCCCCCCC(=O)N[C@@H](CC(N)=O)C(=O)N[C@@H](CC(C)C)C(=O)N[C@]1(C)CCCCCCC=CCCC[C@@](C)(C(=O)N[C@@H](CCC(=O)O)C(=O)N[C@@H](CC(C)C)C(=O)N[C@@H](CC(N)=O)C(N)=O)NC(=O)[C@H](CC(C)C)NC(=O)[C@H](CC(C)C)NC(=O)[C@H](CCCNC(=N)N)NC(=O)[C@H](CC(=O)O)NC(=O)[C@H](CC(C)C)NC(=O)[C@H](CCC(=O)O)NC1=O` [compound 2012], for which the half-maximal inhibitory concentration (IC50) is over 200 µM in assay [1]; over 200 µM in [2]; over 200 µM in [3]; 9.79 µM in assay [4]; 2360 nM in assay [5]; 4.42 µM in [6]. For the same compound, 1800 nM corresponded to half-maximal inhibition in assay [8] (48 h treatment) (IC50). Besides, the response in assay [7] (96 h) was half-maximal at 8.3 µM (EC50). For the same compound, the remaining binding at 1 µM in [9] was 97%; in assay [10] it was 100%; in assay [11] it was 99%; in assay [12] it was 100%; in assay [13] it was 100%; in [14] it was 100%. Moreover, the figures for the remaining binding at 1 µM in assay [15], in assay [16] and in assay [17] were 100%, 85% and 100%, respectively.
Turning to `CCCCCCCCCCCCCC(=O)N[C@@H](CC(N)=O)C(=O)N[C@@H](CC(C)C)C(=O)N[C@]1(C)CCCCCCC=CCCC[C@@](C)(C(=O)N[C@@H](CCC(=O)O)C(=O)N[C@@H](CCC(=O)O)C(=O)N[C@@H](CC(N)=O)C(N)=O)NC(=O)[C@H](CC(C)C)NC(=O)[C@H](CC(C)C)NC(=O)[C@H](CCCNC(=N)N)NC(=O)[C@H](CC(=O)O)NC(=O)[C@H](CCC(=O)O)NC(=O)[C@H](CCC(=O)O)NC1=O` [compound 2020] (Myristoyl-NL[R8]EEDRLL[S5]EEN-NH2; staple 3-10), the IC50 in assay [1] is over 200 µM; in assay [2], over 200 µM; in [3] it was over 200 µM; in assay [4], over 200 µM; in assay [5], over 200000 nM; in assay [6] it was over 200 µM. For the same compound, the “induction of apoptosis, time-course” value in assay [7] is “no effect at any timepoint”. In addition, in assay [8] (48 h treatment), the “invasion IC50” value is listed as “no effect”.
For the compound `CNC(=O)c1ccc(Nc2ncc(C(F)(F)F)c(NCc3nccnc3N(C)S(C)(=O)=O)n2)cc1` [defactinib], the IC50 was 67 µM in assay [1] (Homo sapiens, HepG2, average of n >= 3, read-out: cell viability IC50); 2.19 µM in [2] (Homo sapiens, LX-2, average of n >= 3, read-out: cell viability IC50); over 200 µM in [3] (setting [18]); 18.9 µM in assay [4] (setting [18]); 2840 nM in [5] (Homo sapiens, SK-MEL-147, average of n >= 3, read-out: cell viability IC50); 21.2 µM in assay [6] (setting [18]). In addition, in assay [7] (96 h), the “Annexin V apoptosis EC50” value was “did not exhibit a dose-dependent effect”. Moreover, in assay [7], the “induction of apoptosis, time-course” value is recorded as “no effect at any timepoint”. In assay [8] (2.5 µM), the “percentage of invaded cells” value is given as 0%. For the same compound, the remaining binding at 1 µM turned out to be 39% in assay [9]; 4.9% in assay [10]; 12% in [11]; 100% in assay [12]; 9.9% in assay [13]; 90% in assay [14]. Besides, the remaining binding at 1 µM in [15] amounted to 6.7%; in [16] it was 90%; in [17], 100%.

For the origin of these results see publication PMC11871066, “Structure-based discovery of hydrocarbon-stapled paxillin peptides that block FAK scaffolding in cancer” (Nature Communications, 2025).
